# Experimental data from patent US20190231785A1, “PHOSPHODIESTERASE INHIBITOR TREATMENT” (Cyrano Therapeutics, Inc., priority 2012, published 2019).
# Tested on: asthmatic patients
# Experiment: sGaw after dry powder inhalation, dose escalating single blind study (Examples 5 and 6)
# Conditions: 1 mg IBMX
# Experimental: (§1) To test this theory, asthmatic patients are enrolled in a dose escalating single blind study. On arrival to the clinic, subjects are allowed to rest for 20 minutes before baseline measurements of FEV1 (six recordings) and sGaw (five recordings) are made. Subjects receive a dry powder dispenser loaded with a dose of 2 mg theophylline or a dry powder carrier. […] After each inhalation, measurements of sGaw are made at 1, 3, 5, 10, 15, 20, 25, and 30 minutes.
# On completion of the last recording, subjects inhale a 200 μg dose of salbutamol from a metered inhaler and a further measurement of sGaw is made after 15 minutes. Subjects are also monitored for coughing and are questioned about the taste of the drug.
# as §1, with “Asthmatic patients” for “To test this theory, asthmatic patients”, “of 1” for “of 2”, “mg IBMX formulated as a dry powder” for “mg theophylline”
# On completion of the last recording, subjects inhale a 200 μg dose of salbutamol from a metered inhaler and a further measurement of sGaw mad after 15 minutes. Subjects are also be monitored for coughing and are questioned about the taste of the drug.
structure (smiles),measurement,value
"CC(C)Cn1c(=O)n(C)c(=O)c2[nH]cnc21 [IBMX, 3-isobutyl-1-methylxanthine]",increase in sGaw compared with 200 μg salbutamol,comparable with that produced by salbutamol
same,sGaw above the baseline measurement after 30 minutes,20%
same,time until sGaw baseline is reached,one and a half
